According to US20210301038A1, “POLYSIALIC ACID AND DERIVATIVES THEREOF, PHARMACEUTICAL COMPOSITION AND METHOD OF PRODUCING POLYSIALIC ACID” (Medizinische Hochschule Hannover (MHH), priority 2018, published 2021):

Experiments:
Type in all cases: cell-based, mouse
[1] = tested on: layer II/III - layer V synapses in mPFC slices; assay: TBS-induced LTP (fEPSP) in sham- and endoNF-treated mPFC slices from C57BL/6 mice; conditions: for LTP level 50-60 min after TBS: endoNF-treated slices, Ro 25-6981 0.3 μM, DP12 1 μg/ml, DP5 1 or 10 μg/ml, sarcosine 0.75 mM, SSR 504734 3 μM
Method: (§1) For endoNF treatment in C57BL/6J mice, slices were first allowed to recover for 20 min at room temperature (22-24° C.) in recording aCSF and were then placed in a 24-well plate to be incubated in 2 ml of aCSF without (sham) or with addition of endoNF (10 μg/ml) at 35° C. for 2 hours. The 24-well plate was installed in a water bath (ED, Julabo, Seelbach, Germany). For field excitatory postsynaptic potential (fEPSP) recordings in knockout and transgenic mice, mPFC slices were incubated in recording aCSF for >2 hours at room temperature before recordings. For patch-clamp recordings in knockout mice, slices were incubated first at 35° C. for 20 min and then at room temperature for >30 min before recordings started. The aCSF was continuously gassed with 95% O2/5% CO2 during all incubation steps and recordings.
(§2) Prefrontal slices (400 μm) were transferred to a submerged-type recording MC membrane chamber (volume 2 ml; Scientific Systems Design Inc., Mississauga, Ontario, Canada) perfused with oxygenated recording ACSF at a flow rate of 4 ml/min and maintained at room temperature (22-25° C.), unless stated otherwise in the “Results”-section given below. Field EPSPs were evoked and recorded using thin-walled glass electrodes (borosilicate glass, wall thickness 0.188, length 100, and outer diameter 1.5 mm, Hilgenberg, Malsfeld, Germany) filled with recording aCSF in 400 μm-thick mPFC slices. In order to stimulate electrically the input fibers of pyramidal cells, the stimulation electrode (0.3-0.5 MΩ) was inserted into layers II/III of the prelimbic cortex. The recording electrode (2-2.5 MΩ) was placed in the vicinity of dendrites and cell bodies of pyramidal neurons in layer V (Huang et al., 2004).
(§3) Before LTP induction, basal synaptic transmission was recorded in each slice and the relationship between stimulus intensity and fEPSP slope was measured. Basal fEPSPs were evoked at 0.05 Hz for at least 10 min. The supramaximal slope was determined by gradually increasing the stimulation intensity until a population spike in the fEPSP became first visible. The stimulation intensity was adjusted to elicit a basal fEPSP with a slope of approximately 50% of the supramaximal value.
(§4) LTP was induced by application of five trains of theta-burst stimulation (TBS) with an inter-theta-train interval of 20 s (Brennaman et al., 2011). Each train consisted of 8 bursts delivered at 5 Hz. Each burst consisted of four pulses delivered at 100 Hz. Duration of pulses was 0.2 ms. For calculation of the LTP level, the mean fEPSP slope was measured between 50-60 min after TBS delivery, and it was then normalized to mean baseline fEPSP slope during 0-10 min before TBS. Stimulus artifacts in representative fEPSP examples in figures were blanked to facilitate the perception of fEPSPs recorded in the mPFC. Recording and analysis of LTP in St8Sia4^−/− mice was performed in a blind manner.
The enzyme endosialidase NF (endoNF) (Stummeyer et al., 2005) and the short form of polysialic acid composed of 10 or twelve sialic acid residues (DP10 and DP12) were purified as described previously (Keys et al., 2014). Sialic acid (N-acetylneuraminic acid, DP1) and the pentamer of sialic acid sodium salt (DP5) were obtained from EY Laboratories (San Mateo, Calif., USA). DMB-labelled DP2 and DP12, and non-labelled avDP10-9OAc were synthesized in the laboratory of Rita Gerardy-Schahn (see sections Synthesis of DMB-DP2 and DMB-DP12 and Synthesis of avDP10-9OAc, respectively). […]

[2] = tested on: mPFC slices from St8sia4−/− mice; assay: TBS-induced LTP in mPFC slices from ST8SIA4-deficient mice and wild-type littermates; conditions: Ro 25-6981 0.3 μM, DP12 1 μg/ml, sarcosine 0.75 mM; for LTP magnitude: St8sia4+/+ mice; for LTP level 50-60 min after TBS: St8sia4−/− mice
Method: as §1, §2, §3, §4

[3] = tested on: mPFC slices of AAV-GFP-Tau[R406W] infected mice; assay: mPFC LTP in mice overexpressing GFP-Tau[R406W]; conditions: bath application of 0.3 μM DP12; 50-60 min after induction
Method: Prefrontal slices (400 μm) were transferred to a submerged-type recording MC membrane chamber (volume 2 ml; Scientific Systems Design Inc., Mississauga, Ontario, Canada) perfused with oxygenated recording ACSF at a flow rate of 4 ml/min and maintained at room temperature (22-25° C.), unless stated otherwise in the “Results”-section given below. Field EPSPs were evoked and recorded using thin-walled glass electrodes (borosilicate glass, wall thickness 0.188, length 100, and outer diameter 1.5 mm, Hilgenberg, Malsfeld, Germany) filled with recording aCSF in 400 μm-thick mPFC slices. […]
Before LTP induction, basal synaptic transmission was recorded in each slice and the relationship between stimulus intensity and fEPSP slope was measured. […] The supramaximal slope was determined by gradually increasing the stimulation intensity until a population spike in the fEPSP became first visible. […]
as §4, with “Each train consisted of 8 bursts delivered at 5 Hz. Each burst consisted of four pulses delivered at 100 Hz. Duration of pulses was 0.2 ms.” left out, “Recording and analysis of LTP in St8Sia4^−/− mice was performed in a blind manner.” left out

[4] = tested on: CA3-CA1 synapses in slices from 5×FAD mice; assay: LTP in CA3-CA1 synapses in slices from 5×FAD mice; conditions: bath application 1 μg/ml (approx. 0.3 μM)
Method: as §4
Finally, we tested if DP12 would have an effect in the 5×FAD mouse model of AD associated with amyloidosis and upregulation of extracellular glutamate and signaling through extra synaptic GluN2B receptors. Using a special slice incubation chamber with improved oxygen supply, we were able to induce LTP in CA3-CA1 synapses in slices from 5×FAD mice (FIG. 8).

Molecule | LTP level 50-60 min after TBS [1] | LTP magnitude [2] | LTP level 50-60 min after TBS [2] | rescue of impaired mPFC LTP [3] | LTP levels 50-60 min after theta-burst stimulation [4] | LTP magnitude ([1]; sham-treated slices, 0.3 μM)
(α(2→8)Neu5Ac)12 [DP12] | full restoration of LTP levels | no effect | full restoration of LTP levels | fully rescue LTP | strongly increased | 
C[C@@H](CN1CCC(Cc2ccccc2)CC1)[C@@H](O)c1ccc(O)cc1.O=C(O)/C=C\C(=O)O [Ro 25-6981, (αR,βS)-α-(4-hydroxyphenyl)-β-methyl-4-(phenylmethyl)-1-piperidinepropanol maleate] | full restoration of LTP levels | no effect | full restoration of LTP levels |  |  | no effect
